Six molecules from patent US20250333394A1, “Tiparp Inhibitor Compounds” (AbbVie Inc., priority 2024, published 2025) can be followed below.

One test deals with TIPARP GST-(TEV) (Homo sapiens (Human), UniProt Q7Z3E1). Kind of test: TR-FRET binding assay, TIPARP. The following applies: for IC50: TR-FRET, Probe 1, 2 hours incubation; for PARP1/TIPARP IC50 Ratio: ratio of PARP1 GST IC50 to TIPARP GST-(TEV) IC50. From the text:
The full-length cDNA encoding the human TIPARP (NP_001171647.1, UniProtKB-Q7Z3E1) of 657 amino acids was the template to generate the expression construct. […] The TIPARP fusion protein includes GST, glutathione S-transferase, a 26 kDa protein whose DNA sequence is frequently integrated into expression vectors for production of recombinant proteins. A […], was cloned into vector pFastBacTM 1 (Thermo Fisher Scientific) with an N-terminal GST tag followed by a TEV protease site to produce the TIPARP fusion protein, TIPARP GST-(TEV). TR-FRET assays were used to measure the binding of compounds to TIPARP and PARP1, and to characterize biochemical selectivity. Compound stock solutions (10 mM) were serially diluted in 3-fold increments in dimethyl sulfoxide (DMSO). Diluted compounds were dispensed (30 nL) into white ProxiPlate-384-well plates (PerkinElmer, Waltham, MA, USA) using an ECHO® 550 acoustic Labcyte dispenser (Beckman-Coulter Life Sciences, Indianapolis, IN, USA) to achieve a final starting concentration of 30 μM to 0.5 nM in the assay. This was followed by addition of 5 μL of 2× protein/probe mix (Table 2) made in assay buffer (Tris-HCl 50 mM pH 8.0; 5 mM MgCl2; 5 μM ZnCl2; 1 mM DTT (dithiothreitol); 0.15% BSA (bovine serum albumin) (w/v); and 0.01% TritonX-100 (w/v)) at final concentrations listed in Table 2. Subsequently, 5 μL of 2× antibody (Tb-labeled anti-GST antibody, Thermo Fisher Scientific, Waltham, MA, USA) in HEPES buffered saline was added to each well at a final concentration of 1 nM. The samples were then incubated for 2 hours under ambient conditions. Fluorescence was measured and TR-FR ET ratios were determined on an EnVision multimode plate reader (PerkinElmer) using a 520 nanometer (nm) excitation wavelength and collecting fluorescence emission at 495 nm. […] [table]
(In general: TR-FRET usually uses a lanthanide donor and a delayed reading to cut background.)

Another test has as its target PARP1 GST (Homo sapiens (Human), UniProt P09874). Briefly: TR-FRET binding assay, PARP1. The following applies: Probe 2, 2 hours incubation. As for the experimental part: TR-FRET assays were used to measure the binding of compounds to TIPARP and PARP1, and to characterize biochemical selectivity. Compound stock solutions (10 mM) were serially diluted in 3-fold increments in dimethyl sulfoxide (DMSO). Diluted compounds were dispensed (30 nL) into white ProxiPlate-384-well plates (PerkinElmer, Waltham, MA, USA) using an ECHO® 550 acoustic Labcyte dispenser (Beckman-Coulter Life Sciences, Indianapolis, IN, USA) to achieve a final starting concentration of 30 μM to 0.5 nM in the assay. This was followed by addition of 5 μL of 2× protein/probe mix (Table 2) made in assay buffer (Tris-HCl 50 mM pH 8.0; 5 mM MgCl2; 5 μM ZnCl2; 1 mM DTT (dithiothreitol); 0.15% BSA (bovine serum albumin) (w/v); and 0.01% TritonX-100 (w/v)) at final concentrations listed in Table 2. Subsequently, 5 μL of 2× antibody (Tb-labeled anti-GST antibody, Thermo Fisher Scientific, Waltham, MA, USA) in HEPES buffered saline was added to each well at a final concentration of 1 nM. The samples were then incubated for 2 hours under ambient conditions. Fluorescence was measured and TR-FR ET ratios were determined on an EnVision multimode plate reader (PerkinElmer) using a 520 nanometer (nm) excitation wavelength and collecting fluorescence emission at 495 nm.

The subject of another test is NCI-H1373 cells. Kind of test: NCI-H1373 CellTiter-Glo cell assay for TIPARP inhibition. It counts as cell-based, human. The note with it: Homo sapiens, NCI-H1373, 144 h; 6 days, 100 nM 10-Cl-BBQ in medium; read-out: NCI-H1373 CTG EC50. As for the experimental part: The NCI-H1373 CellTiter-Glo® assay was used to determine cell numbers after TIPARP inhibition-induced cell cycle arrest, and enabled screening of compounds for cellular TIPARP inhibition potency.
Compound stock solutions (10 mM) were serially diluted in 3-fold increments in dimethyl sulfoxide. Sample aliquots (120 nL) were dispensed into Corning® 384-well Flat Clear Bottom White Polystyrene TC-treated Microplates (Corning Life Sciences, Corning, NY, USA) using an ECHO® 550 acoustic Labcyte dispenser (Beckman-Coulter Life Sciences, Indianapolis, IN, USA) to achieve final concentrations between 30 μM and 0.5 nM in the assay. This was followed by the addition of 40 μL of 1000 NCI-H1373 cells (ATCC®, Manassas, VA, USA) in complete growth medium RPMI 1640 growth medium (Thermo Fisher Scientific, Waltham, MA, USA) supplemented with 20 mg/L L-glutamate, 25 mM HEPES (4-(2-hydroxyethyl)-1-piperazineethanesulfonic acid), 10% (v/v) heat inactivated FBS (fetal bovine serum), 1% (w/v) penicillin-streptomycin, and 100 nM 10-Cl-BBQ (10-chloro-7H-benzimidazo[2,1-a]benz[de]isoquinolin-7-one, (Tocris, Minneapolis, MN, USA). Duplicate cell plates with 40 μL cells/well along with various concentrations of compounds were kept in Nunc™ Square BioAssay Dishes (Thermo Fisher Scientific) at 98% relative humidity in a 5% C02 incubator at 37° C. for 6 days. On day 7, plates were moved to ambient lab conditions for 10 minutes until the temperature equilibrated. Following equilibration, CellTiter-Glo® Luminescent Cell Viability Assay reagent (Promega™, Madison, WI, USA) was added (15 μL) to each well of the plates. After a 20 minutes incubation, luminescence was detected using a ViewLux™ microplate imager (PerkinElmer, Waltham, MA, USA). Data analysis was performed using GraphPad Prism (Dotmatics, Boston, MA, USA).
On the technique in general: In ATP-based viability assays light output follows the ATP content of the culture.

The subject of a further test is DLD-1 parent cells. Briefly: CellTiter-Glo DLD-1 parent cell assay. Type of test: cell-based. The following applies: Homo sapiens, 144 h, 6 days, read-out: DLD-1 CTG EC50. An excerpt: (§1) The DLD-1 BRCA2 (−/−) CellTiter-Glo® assay measured the synthetic lethality of PARP1/2 inhibitors and was used as a surrogate to allow measurement of activity of both PARP1 and PARP2 in cells. If PARP1 and PARP2 are inhibited and are trapped onto chromatin during DNA replication, there is replication fork stalling and accumulation of double strand breaks. In BR CA wild-type cells, the resulting double strand DNA breaks are repaired via homologous recombination. In cells with mutation of BRCA1 or BRCA2, homologous recombination repair of DNA double strand breaks is defective, and cell death occurs after PARP1/2 inhibitor treatment (Lord C J, Ashworth A. PARP inhibitors: synthetic lethality in the clinic. Science. 2017 Mar. 17; 355(6330):1152-1158). Testing compounds in viability assays with the DLD-1-BR CA 2 (−/−) and DLD-1 parent cell enabled assessment on PARP1/2-dependent (cytotoxicity in the BRCA2 (−/−) cells only) vs. non-selective cytotoxicity in both cell lines.
(§2) Compound stock solutions (10 mM) were serially diluted in 3-fold increments in dimethyl sulfoxide (DMSO). Sample aliquots (120 nL) were dispensed into Corning® 384-well Flat Clear Bottom White Polystyrene TC-treated Microplates (Corning Life Sciences, Corning, NY, USA) using an ECHO® 550 acoustic Labcyte dispenser (Beckman-Coulter Life Sciences, Indianapolis, IN, USA) to achieve concentrations between 30 μM and 0.5 nM in the assay. In the assay, 40 μL of 500 DLD-1 parent cells (HORIZON® Therapeutics, Deerfield, IL, USA) or 40 μL of 1200 DLD-1-BRCA2 (−/−) cells (HORIZON Therapeutics) in complete growth medium containing RPMI 1640 growth medium (ThermoFisher Scientific, Waltham, MA, USA) supplemented with 20 mg/L L-glutamate, 25 mM HEPES (4-(2-hydroxyethyl)-1-piperazineethanesulfonic acid), 10% (v/v) heat inactivated FBS (fetal bovine serum), and 1% (w/v) Penicillin-Streptomycin were added.
(§3) Duplicate cell plates with 40 μL cells/well along with various concentrations of compounds were kept in Nunc™ Square BioAssay Dishes (Thermo Fisher Scientific) at 98% relative humidity in a 5% CO2 incubator at 37° C. for 6 days. On day 7, plates were moved to ambient lab conditions for 10 minutes until the temperature equilibrated. Following equilibration, CellTiter-Glo® Luminescent Cell Viability Assay reagent (Promega™, Madison, WI, USA) was added (15 μL) to each well of the plates. After a 20 minutes incubation, luminescence was detected using a ViewLux™ microplate imager (PerkinElmer, Waltham, MA, USA). Data analysis was performed using GraphPad Prism (Dotmatics, Boston, MA, USA).

The next test has as its system DLD-1 BRCA2 (−/−) cells. Briefly: CellTiter-Glo DLD-1 BRCA2 (−/−) cell assay for PARP1/2 inhibition. It counts as cell-based. The following applies: Homo sapiens, 144 h, 6 days, read-out: DLD-1 BRCA2 (−/−) CTG EC50.
From the text: as §1, §2, §3

As a reminder, the IC50 is the concentration that inhibits the measured activity by half.

SMILES strings stand for the structures.

Sequence of PARP1 GST (P09874 whole entry): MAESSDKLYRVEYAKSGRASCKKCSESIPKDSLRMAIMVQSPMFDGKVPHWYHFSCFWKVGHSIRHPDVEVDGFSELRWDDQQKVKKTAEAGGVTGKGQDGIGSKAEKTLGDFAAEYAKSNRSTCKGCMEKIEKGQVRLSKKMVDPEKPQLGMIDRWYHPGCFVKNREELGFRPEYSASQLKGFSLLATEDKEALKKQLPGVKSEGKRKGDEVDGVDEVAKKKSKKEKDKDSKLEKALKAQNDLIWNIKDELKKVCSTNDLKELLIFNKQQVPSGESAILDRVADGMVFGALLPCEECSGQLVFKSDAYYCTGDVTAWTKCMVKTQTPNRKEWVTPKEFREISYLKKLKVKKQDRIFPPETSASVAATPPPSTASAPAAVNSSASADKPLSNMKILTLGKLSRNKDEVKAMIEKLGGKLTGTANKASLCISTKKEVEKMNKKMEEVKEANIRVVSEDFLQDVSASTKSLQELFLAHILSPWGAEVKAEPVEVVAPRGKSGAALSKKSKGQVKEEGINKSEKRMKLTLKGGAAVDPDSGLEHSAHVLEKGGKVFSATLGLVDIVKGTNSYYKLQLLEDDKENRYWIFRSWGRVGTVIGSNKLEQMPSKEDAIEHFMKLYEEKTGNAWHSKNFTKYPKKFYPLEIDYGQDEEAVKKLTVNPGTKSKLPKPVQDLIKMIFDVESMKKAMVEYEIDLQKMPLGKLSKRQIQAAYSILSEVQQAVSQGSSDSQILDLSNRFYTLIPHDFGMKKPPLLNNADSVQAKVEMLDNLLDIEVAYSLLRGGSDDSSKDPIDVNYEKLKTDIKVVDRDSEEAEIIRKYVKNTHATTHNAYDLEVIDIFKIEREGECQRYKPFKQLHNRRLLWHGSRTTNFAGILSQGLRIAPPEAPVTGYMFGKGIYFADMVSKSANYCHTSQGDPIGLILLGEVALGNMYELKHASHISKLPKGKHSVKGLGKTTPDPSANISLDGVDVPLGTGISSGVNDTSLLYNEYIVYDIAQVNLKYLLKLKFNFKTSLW
Sequence of TIPARP GST-(TEV) (Q7Z3E1 441-657): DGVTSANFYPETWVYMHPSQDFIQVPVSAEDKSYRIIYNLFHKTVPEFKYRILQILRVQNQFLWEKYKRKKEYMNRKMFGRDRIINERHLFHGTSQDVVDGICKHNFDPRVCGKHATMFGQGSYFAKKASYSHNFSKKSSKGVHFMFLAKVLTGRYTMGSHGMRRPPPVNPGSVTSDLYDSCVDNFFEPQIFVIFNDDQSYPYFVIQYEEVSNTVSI

For `C[C@@H]1CN(c2ncc(C(C)(C)O)cn2)CCN1C(=O)[C@H]1C[C@@H](c2c[nH]c(=O)c(C(F)(F)F)c2)C1` [Example 9, 5-[(1S,3s)-3-{(2R)-4-[5-(2-hydroxypropan-2-yl)pyrimidin-2-yl]-2-methylpiperazine-1-carbonyl}cyclobutyl]-3-(trifluoromethyl)pyridin-2(1H)-one], the half-maximal inhibitory concentration (IC50) on TIPARP GST-(TEV) was 4.32 nM; at PARP1 GST, 4360 nM. The “PARP1/TIPARP IC50 Ratio” value at TIPARP GST-(TEV) is given as 1010. The EC50 in the test on NCI-H1373 cells is 67.7 nM; in the test on DLD-1 parent cells, greater than 30000 nM; in the test with DLD-1 BRCA2 (−/−) cells it was greater than 30000 nM.
Turning to `C[C@H]1CN(C(=O)[C@H]2C[C@@H](c3c[nH]c(=O)c(C(F)(F)F)c3)C2)CCN1c1ncc(C(C)(C)O)cn1` [Example 10, 5-[(1R,3s)-3-{(3S)-4-[5-(2-hydroxypropan-2-yl)pyrimidin-2-yl]-3-methylpiperazine-1-carbonyl}cyclobutyl]-3-(trifluoromethyl)pyridin-2(1H)-one], the IC50 at TIPARP GST-(TEV) was determined as 10.1 nM; on PARP1 GST, 3080 nM. In addition, the “PARP1/TIPARP IC50 Ratio” value on TIPARP GST-(TEV) amounted to 305. The EC50 with NCI-H1373 cells is 284 nM; in the test on DLD-1 parent cells it was greater than 30000 nM; in the test with DLD-1 BRCA2 (−/−) cells, greater than 30000 nM.
For `C[C@H]1CN(c2ncc(C(C)(C)O)cn2)CCN1C(=O)[C@H]1C[C@@H](c2c[nH]c(=O)c(C(F)(F)F)c2)C1` [Example 11, 5-[(1R,3s)-3-{(2S)-4-[5-(2-hydroxypropan-2-yl)pyrimidin-2-yl]-2-methylpiperazine-1-carbonyl}cyclobutyl]-3-(trifluoromethyl)pyridin-2(1H)-one], the IC50 was 10.9 nM on TIPARP GST-(TEV) and 616 nM at PARP1 GST. In addition, on TIPARP GST-(TEV), the “PARP1/TIPARP IC50 Ratio” value was determined as 56.5. Moreover, the EC50 is 337 nM with NCI-H1373 cells, 16000 nM with DLD-1 parent cells and 1180 nM in the test on DLD-1 BRCA2 (−/−) cells.
On to `C[C@@H]1CN(c2ncc(C(F)(F)F)cn2)CCN1C(=O)[C@H]1C[C@@H](Cc2c[nH]c(=O)c(C(F)(F)F)c2)C1` [Example 12, 5-{[(1S,3s)-3-{(2R)-2-methyl-4-[5-(trifluoromethyl)pyrimidin-2-yl]piperazine-1-carbonyl}cyclobutyl]methyl}-3-(trifluoromethyl)pyridin-2(1H)-one], for which the IC50 on TIPARP GST-(TEV) came to 3.16 nM; on PARP1 GST, 3650 nM. Besides, the “PARP1/TIPARP IC50 Ratio” value at TIPARP GST-(TEV) came to 1160. Also, the EC50 with NCI-H1373 cells was determined as 29.2 nM; in the test with DLD-1 parent cells it was 11100 nM; in the test with DLD-1 BRCA2 (−/−) cells it was 5480 nM.
In the case of `C[C@@H]1CN(c2ncc(C(F)(F)F)cn2)C[C@H](C)N1C(=O)[C@H]1C[C@@H](Cc2c[nH]c(=O)c(C(F)(F)F)c2)C1` [Example 13, 5-{[(1s,3s)-3-{(2R,6S)-2,6-dimethyl-4-[5-(trifluoromethyl)pyrimidin-2-yl]piperazine-1-carbonyl}cyclobutyl]methyl}-3-(trifluoromethyl)pyridin-2(1H)-one], the figures for the half-inhibitory concentration (IC50) on TIPARP GST-(TEV) and at PARP1 GST were 3.79 nM and 7380 nM, respectively. Besides, the “PARP1/TIPARP IC50 Ratio” value on TIPARP GST-(TEV) is reported as 1950. The EC50 stood at 33.3 nM with NCI-H1373 cells, 11100 nM in the test on DLD-1 parent cells and 6960 nM in the test on DLD-1 BRCA2 (−/−) cells.
On to `C[C@@H]1CN(C(=O)[C@H]2C[C@@H](Cc3c[nH]c(=O)c(C(F)(F)F)c3)C2)C[C@H](C)N1c1ncc(C(F)(F)F)cn1` [Example 14, 5-{[(1s,3s)-3-{(3R,5S)-3,5-dimethyl-4-[5-(trifluoromethyl)pyrimidin-2-yl]piperazine-1-carbonyl}cyclobutyl]methyl}-3-(trifluoromethyl)pyridin-2(1H)-one], for which the IC50 worked out at 2.17 nM on TIPARP GST-(TEV) and 4110 nM at PARP1 GST. Moreover, at TIPARP GST-(TEV), the “PARP1/TIPARP IC50 Ratio” value is on record as 1890. Besides, the values for the EC50 in the test on NCI-H1373 cells, with DLD-1 parent cells and with DLD-1 BRCA2 (−/−) cells were 10.9 nM, 14300 nM and 4490 nM, respectively.
